The values below are quoted from earlier work in US12115173B2 (Elba Laboratories, priority 2021, dated 2024).

In the case of `O=C(O)CO` [glycolic acid], the pKa entry is on record as “about 3.8”.
